Literature values in PMC9851200, “Multiparameter phenotypic screening for endogenous TFEB and TFE3 translocation identifies novel chemical series modulating lysosome function” (Autophagy, 2022).

Tests used:
Parameters in all cases: method as in original PKIS2 published data
[1] = biological target: T1, kinases (KINOMEscan panel) (Homo sapiens, UniProt O15146); conditions: MUSK; Published KINOMEscan; ref original PKIS2 published data; cited from earlier work
T1 sequence (O15146 24-869): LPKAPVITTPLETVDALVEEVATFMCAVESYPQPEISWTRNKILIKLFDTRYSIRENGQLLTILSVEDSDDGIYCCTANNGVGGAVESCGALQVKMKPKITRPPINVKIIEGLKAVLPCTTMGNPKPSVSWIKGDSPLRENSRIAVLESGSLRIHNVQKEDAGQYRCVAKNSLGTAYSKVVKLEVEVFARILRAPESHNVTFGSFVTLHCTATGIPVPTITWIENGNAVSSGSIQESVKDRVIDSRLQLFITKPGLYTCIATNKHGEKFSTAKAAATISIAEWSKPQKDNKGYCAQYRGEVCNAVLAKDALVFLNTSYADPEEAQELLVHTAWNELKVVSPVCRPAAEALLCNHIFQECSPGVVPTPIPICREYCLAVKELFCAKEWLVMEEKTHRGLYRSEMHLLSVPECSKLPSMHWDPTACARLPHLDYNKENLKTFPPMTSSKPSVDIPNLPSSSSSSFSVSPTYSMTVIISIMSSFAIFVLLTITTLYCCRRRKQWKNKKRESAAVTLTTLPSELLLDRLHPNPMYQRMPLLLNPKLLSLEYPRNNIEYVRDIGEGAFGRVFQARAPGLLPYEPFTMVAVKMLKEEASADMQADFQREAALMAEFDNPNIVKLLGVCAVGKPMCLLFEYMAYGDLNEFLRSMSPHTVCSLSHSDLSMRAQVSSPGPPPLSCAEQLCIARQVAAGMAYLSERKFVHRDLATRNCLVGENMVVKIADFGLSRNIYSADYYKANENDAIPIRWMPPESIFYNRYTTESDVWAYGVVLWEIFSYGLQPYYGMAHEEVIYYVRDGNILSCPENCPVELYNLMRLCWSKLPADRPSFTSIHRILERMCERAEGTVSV

[2] = biological target: kinases (KINOMEscan panel) (Homo sapiens, UniProt P11309); conditions: Published KINOMEscan; ref original PKIS2 published data; cited from earlier work
Chain of kinases (KINOMEscan panel) (Homo sapiens, UniProt P11309) (P11309 whole entry): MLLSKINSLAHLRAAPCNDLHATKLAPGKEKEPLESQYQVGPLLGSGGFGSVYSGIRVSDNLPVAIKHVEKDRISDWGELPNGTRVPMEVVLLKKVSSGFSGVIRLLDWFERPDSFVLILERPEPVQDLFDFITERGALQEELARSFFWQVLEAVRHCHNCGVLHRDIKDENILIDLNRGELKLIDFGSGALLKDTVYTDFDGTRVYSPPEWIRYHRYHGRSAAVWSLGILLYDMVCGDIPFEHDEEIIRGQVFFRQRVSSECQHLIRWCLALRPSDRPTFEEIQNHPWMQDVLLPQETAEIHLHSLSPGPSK

[3] = biological target: kinases (KINOMEscan panel) (Homo sapiens, UniProt P11802); conditions: Published KINOMEscan, ref original PKIS2 published data, cited from earlier work
Chain of kinases (KINOMEscan panel) (Homo sapiens, UniProt P11802) (P11802 whole entry): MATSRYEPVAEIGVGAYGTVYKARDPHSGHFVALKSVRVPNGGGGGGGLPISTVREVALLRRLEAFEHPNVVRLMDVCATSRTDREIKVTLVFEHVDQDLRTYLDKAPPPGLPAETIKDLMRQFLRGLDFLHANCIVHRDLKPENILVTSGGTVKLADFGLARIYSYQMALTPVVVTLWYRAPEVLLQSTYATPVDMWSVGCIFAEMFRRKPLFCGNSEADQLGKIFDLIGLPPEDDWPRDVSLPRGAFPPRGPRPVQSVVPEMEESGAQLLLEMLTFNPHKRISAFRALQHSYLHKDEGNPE

[4] = biological target: kinases (KINOMEscan panel) (Homo sapiens, UniProt P15056); conditions: BRAF; Published KINOMEscan; ref original PKIS2 published data; cited from earlier work
Chain of kinases (KINOMEscan panel) (Homo sapiens, UniProt P15056) (P15056 whole entry): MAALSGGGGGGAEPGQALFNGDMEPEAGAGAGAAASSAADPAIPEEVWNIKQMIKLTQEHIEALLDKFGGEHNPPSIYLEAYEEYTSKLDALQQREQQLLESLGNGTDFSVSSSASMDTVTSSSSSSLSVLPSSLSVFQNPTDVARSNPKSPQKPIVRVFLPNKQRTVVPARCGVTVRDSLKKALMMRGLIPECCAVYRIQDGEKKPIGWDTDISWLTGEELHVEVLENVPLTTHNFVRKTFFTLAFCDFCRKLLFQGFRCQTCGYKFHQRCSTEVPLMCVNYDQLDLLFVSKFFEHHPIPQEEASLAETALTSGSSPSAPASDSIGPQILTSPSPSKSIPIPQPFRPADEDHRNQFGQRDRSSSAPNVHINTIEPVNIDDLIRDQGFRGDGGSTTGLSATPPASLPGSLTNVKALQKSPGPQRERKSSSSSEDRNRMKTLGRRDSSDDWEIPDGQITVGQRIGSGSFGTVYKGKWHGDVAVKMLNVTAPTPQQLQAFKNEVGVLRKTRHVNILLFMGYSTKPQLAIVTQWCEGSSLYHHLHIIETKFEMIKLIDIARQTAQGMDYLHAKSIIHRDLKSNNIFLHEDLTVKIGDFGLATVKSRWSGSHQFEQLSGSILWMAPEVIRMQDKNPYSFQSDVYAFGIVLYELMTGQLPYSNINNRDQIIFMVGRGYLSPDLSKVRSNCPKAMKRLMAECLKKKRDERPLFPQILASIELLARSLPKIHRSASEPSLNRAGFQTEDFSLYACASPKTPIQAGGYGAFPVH

[5] = biological target: T2, kinases (KINOMEscan panel) (Homo sapiens, UniProt Q16832); conditions: DDR2; Published KINOMEscan; ref original PKIS2 published data; cited from earlier work
T2 sequence (Q16832 22-855): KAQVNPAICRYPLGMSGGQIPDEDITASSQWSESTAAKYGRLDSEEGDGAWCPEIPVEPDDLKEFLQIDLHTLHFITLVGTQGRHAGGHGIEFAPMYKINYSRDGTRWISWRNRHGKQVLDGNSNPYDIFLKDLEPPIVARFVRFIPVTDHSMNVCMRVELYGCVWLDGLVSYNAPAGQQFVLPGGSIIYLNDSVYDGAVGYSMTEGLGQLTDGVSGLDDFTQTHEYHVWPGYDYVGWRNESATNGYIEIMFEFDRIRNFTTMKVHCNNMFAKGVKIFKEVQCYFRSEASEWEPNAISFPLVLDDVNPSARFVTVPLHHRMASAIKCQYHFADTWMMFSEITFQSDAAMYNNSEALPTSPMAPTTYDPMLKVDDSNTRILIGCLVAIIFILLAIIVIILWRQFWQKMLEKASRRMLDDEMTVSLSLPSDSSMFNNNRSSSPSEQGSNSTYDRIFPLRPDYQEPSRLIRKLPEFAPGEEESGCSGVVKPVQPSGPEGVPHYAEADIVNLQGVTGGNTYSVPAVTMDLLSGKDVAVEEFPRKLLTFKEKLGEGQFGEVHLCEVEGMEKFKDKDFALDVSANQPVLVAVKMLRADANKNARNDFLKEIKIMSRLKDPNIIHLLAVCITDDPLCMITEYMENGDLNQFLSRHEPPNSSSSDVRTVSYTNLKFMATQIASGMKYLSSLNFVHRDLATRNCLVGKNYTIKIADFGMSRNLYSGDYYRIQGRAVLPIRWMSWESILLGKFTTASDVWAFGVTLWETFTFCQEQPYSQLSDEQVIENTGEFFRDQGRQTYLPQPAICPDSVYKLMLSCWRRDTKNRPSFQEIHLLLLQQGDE

[6] = biological target: T3, kinases (KINOMEscan panel) (Homo sapiens, UniProt Q8N752); conditions: CSNK1A1L; Published KINOMEscan; ref original PKIS2 published data; cited from earlier work
T3 sequence (Q8N752 1-337): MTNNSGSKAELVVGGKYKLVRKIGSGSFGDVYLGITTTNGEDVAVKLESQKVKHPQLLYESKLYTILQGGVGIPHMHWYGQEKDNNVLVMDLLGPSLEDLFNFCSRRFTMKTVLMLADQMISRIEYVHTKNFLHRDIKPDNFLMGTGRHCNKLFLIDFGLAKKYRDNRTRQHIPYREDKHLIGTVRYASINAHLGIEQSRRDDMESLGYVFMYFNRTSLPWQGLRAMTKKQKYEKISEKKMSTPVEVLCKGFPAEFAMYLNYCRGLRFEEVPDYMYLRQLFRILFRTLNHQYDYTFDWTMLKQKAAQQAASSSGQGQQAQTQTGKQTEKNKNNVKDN

[7] = biological target: kinases (KINOMEscan panel) (Homo sapiens, UniProt Q9NQU5); conditions: PAK6; Published KINOMEscan; ref original PKIS2 published data; cited from earlier work
Chain of kinases (KINOMEscan panel) (Homo sapiens, UniProt Q9NQU5) (Q9NQU5 whole entry): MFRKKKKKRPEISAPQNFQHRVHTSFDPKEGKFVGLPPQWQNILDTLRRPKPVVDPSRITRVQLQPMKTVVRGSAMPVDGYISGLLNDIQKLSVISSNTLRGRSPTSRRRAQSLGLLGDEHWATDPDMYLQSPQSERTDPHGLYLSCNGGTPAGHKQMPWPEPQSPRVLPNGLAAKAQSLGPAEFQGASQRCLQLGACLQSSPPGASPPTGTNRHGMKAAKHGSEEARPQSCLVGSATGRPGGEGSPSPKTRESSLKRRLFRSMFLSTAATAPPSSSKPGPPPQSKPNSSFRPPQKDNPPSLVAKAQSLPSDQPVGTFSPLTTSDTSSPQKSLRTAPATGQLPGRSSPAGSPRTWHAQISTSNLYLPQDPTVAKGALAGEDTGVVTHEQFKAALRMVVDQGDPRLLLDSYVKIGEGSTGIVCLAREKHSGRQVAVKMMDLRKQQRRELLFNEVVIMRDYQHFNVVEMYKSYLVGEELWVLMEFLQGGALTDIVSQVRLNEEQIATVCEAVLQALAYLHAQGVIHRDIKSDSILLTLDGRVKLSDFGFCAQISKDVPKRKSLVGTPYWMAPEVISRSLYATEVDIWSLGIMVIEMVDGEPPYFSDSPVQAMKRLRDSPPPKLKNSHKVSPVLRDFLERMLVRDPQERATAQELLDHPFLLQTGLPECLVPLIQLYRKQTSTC

Cc1cccc(-c2nc(Nc3ccncc3)c3ccccc3n2)n1 [NK215]
KINOMEscan MUSK [1]: 17
KINOMEscan PIM1 [2]: 0
KINOMEscan CDK4-cyclinD1 (???) CCND1 ([3]; CDK4-cyclinD1 (???) CCND1): 13
KINOMEscan CDK4-cyclinD3 ([3]; kinase CDK4-cyclinD3): 0
KINOMEscan CDK4 ([3]; kinase CDK4): 0
KINOMEscan BRAF [4]: 0
KINOMEscan DDR2 [5]: 45
KINOMEscan CSNK1A1L [6]: 10
KINOMEscan PAK6 [7]: 3
